The text below walks through data of patent US20250270209A1 (INTERLINE THERAPEUTICS, INC., priority 2022, published 2025).

The structures appear in SMILES notation.

The target in assay [1] is T1, wild type LRRK2 overexpressed in recombinant HEK-293T cells (Homo sapiens, UniProt Q5S007).
T1 construct: host or cells: HEK293T (transient transfection with pCMV-LRRK2 WT plasmid)
Put plainly: pS935 LRRK2 Cell Assay (HTRF, phospho-LRRK2 Ser935). The following applies: LRRK2 Inhibition, Table 8, 2 hours compound incubation. The format is cell-based. A digest of the protocol:
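Phospho-Ser935 LRRK2 measured by two-antibody HTRF (Eu-cryptate donor, d2 acceptor; 665/615 nm ratio) after overnight detection at 23° C. Before lysis, transiently LRRK2-transfected HEK-293T cells were exposed 2 h at 37° C to a 9-point, 3-fold series from 10 μM, with DMSO at 0.2%.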

The target in the next assay is LRRK2 wild type enzyme (Homo sapiens, UniProt Q5S007). Put plainly: Biochemical Assay: LRRK2 TR-FRET (LanthaScreen) kinase assay with LRRKtide substrate. The settings on record: LRRK2 Inhibition, Table 8. A digest of the protocol: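 TR-FRET detection (Tb-labelled phospho-LRRKtide antibody, EDTA stop, 30 min) followed a 120 min, 23 °C reaction of 3 nM wild-type human LRRK2 with LRRKtide (400 nM) and ATP (25 μM) in Tris pH 8.0. Compounds: 11-point 3-fold series from 10 μM, 15 min enzyme preincubation.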
Chain of LRRK2 wild type enzyme (Q5S007 whole entry): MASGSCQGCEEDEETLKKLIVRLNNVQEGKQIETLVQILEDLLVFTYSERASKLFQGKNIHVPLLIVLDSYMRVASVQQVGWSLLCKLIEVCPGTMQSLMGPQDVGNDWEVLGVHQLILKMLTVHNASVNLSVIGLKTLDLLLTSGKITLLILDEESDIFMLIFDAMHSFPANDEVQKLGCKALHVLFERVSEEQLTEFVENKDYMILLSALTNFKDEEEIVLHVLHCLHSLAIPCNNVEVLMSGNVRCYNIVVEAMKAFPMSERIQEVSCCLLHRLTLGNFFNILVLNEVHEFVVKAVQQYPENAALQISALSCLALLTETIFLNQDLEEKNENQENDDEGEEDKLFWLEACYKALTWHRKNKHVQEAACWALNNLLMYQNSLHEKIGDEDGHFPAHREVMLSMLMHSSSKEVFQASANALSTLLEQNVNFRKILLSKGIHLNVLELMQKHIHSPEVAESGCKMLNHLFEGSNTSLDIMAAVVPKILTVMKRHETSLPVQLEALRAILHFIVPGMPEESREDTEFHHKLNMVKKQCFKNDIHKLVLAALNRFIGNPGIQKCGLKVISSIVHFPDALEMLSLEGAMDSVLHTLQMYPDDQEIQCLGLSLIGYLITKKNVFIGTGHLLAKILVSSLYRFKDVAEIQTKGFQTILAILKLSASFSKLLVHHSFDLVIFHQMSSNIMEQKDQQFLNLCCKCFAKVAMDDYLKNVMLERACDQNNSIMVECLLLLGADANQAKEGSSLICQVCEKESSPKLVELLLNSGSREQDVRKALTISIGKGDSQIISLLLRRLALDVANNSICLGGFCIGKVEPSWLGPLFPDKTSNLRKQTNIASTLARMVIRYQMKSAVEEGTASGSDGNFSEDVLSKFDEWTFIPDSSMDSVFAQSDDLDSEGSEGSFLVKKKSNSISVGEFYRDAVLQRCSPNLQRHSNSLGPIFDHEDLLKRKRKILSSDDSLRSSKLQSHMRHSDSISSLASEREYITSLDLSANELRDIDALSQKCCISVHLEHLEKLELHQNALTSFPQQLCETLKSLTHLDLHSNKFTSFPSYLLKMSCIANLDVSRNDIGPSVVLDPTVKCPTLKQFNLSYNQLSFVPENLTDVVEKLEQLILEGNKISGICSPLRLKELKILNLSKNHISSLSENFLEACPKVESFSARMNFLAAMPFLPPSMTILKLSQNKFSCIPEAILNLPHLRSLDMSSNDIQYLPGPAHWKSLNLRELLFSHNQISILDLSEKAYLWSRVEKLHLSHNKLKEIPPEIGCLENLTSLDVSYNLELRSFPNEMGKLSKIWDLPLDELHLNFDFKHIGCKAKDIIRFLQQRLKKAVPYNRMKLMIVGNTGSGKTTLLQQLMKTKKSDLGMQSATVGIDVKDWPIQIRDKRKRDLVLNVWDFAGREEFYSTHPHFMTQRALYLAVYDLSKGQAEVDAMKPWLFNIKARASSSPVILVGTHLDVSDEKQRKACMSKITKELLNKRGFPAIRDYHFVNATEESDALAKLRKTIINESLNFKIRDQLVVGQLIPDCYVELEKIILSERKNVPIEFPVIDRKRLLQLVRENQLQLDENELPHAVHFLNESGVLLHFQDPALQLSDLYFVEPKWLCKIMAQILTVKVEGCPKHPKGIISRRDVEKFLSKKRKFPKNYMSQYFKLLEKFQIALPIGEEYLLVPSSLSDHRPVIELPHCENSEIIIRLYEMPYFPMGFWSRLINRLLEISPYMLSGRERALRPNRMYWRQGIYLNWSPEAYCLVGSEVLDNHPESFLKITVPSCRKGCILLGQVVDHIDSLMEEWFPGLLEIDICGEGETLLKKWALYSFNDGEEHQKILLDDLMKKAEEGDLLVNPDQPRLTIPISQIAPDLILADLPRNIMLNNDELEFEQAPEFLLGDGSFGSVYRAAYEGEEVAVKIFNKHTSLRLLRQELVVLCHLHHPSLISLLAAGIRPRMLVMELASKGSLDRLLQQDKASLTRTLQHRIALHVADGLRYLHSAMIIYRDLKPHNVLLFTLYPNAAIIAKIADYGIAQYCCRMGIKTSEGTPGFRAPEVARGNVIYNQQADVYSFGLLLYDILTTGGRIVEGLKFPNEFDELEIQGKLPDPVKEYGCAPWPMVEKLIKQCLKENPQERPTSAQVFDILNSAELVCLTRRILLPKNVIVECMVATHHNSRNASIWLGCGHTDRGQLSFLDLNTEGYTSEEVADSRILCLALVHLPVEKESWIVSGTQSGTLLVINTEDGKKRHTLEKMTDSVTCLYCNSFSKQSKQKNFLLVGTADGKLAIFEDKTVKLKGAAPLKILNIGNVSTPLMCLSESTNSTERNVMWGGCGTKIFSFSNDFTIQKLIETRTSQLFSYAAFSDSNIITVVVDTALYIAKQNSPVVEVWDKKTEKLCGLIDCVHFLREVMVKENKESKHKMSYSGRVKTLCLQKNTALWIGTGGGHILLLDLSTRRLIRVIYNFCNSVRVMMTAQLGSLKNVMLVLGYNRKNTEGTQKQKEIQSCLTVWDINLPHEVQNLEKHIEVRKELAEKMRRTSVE

T1 sequence (Q5S007 whole entry): as above

For the compound `C[C@@H]1C[C@H](n2c(CC(=O)Nc3nccc(C4CC4)n3)nc3cnc4ccc(C#N)cc4c32)CCO1` [Compound 338, N-(4-cyclopropyl-2-pyrimidinyl){3-[(2R,4R)-2-methyltetrahydro-2H-pyran-4-yl]-12-cyano-3,5,8-triazatricyclo[7.4.0.0^2,6]trideca-1(9),2(6),4,7,10,12-hexaen-4-yl}acetamide], the values for the IC50 (in assay [1]; on LRRK2 wild type enzyme) were 1.87 nM and 0.364 nM, respectively.

Turning to `C[C@@H]1C[C@H](n2c(CC(=O)N[C@@H](C)c3ccccn3)nc3cnc4ccc(C#N)cc4c32)CCO1` [Compound 189, 2-{8-cyano-1-[(2R,4R)-2-methyloxan-4-yl]-1H-imidazo[4,5-c]quinolin-2-yl}-N-[(1S)-1-(pyridin-2-yl)ethyl]acetamide], the IC50 amounted to 1.64 nM in assay [1] and 0.332 nM at LRRK2 wild type enzyme.

Take `C[C@@H]1C[C@H](n2c(CC(=O)Nc3ccnn3C3COC3)nc3cnc4ccc(C#N)cc4c32)CCO1` [Compound 345, N-[1-(3-oxetanyl)-5-pyrazolyl]{3-[(2R,4R)-2-methyltetrahydro-2H-pyran-4-yl]-12-cyano-3,5,8-triazatricyclo[7.4.0.0^2,6]trideca-1(9),2(6),4,7,10,12-hexaen-4-yl}acetamide]: the IC50 in assay [1] turned out to be 52.6 nM; at LRRK2 wild type enzyme it was 0.573 nM.

Turning to `C[C@@H]1C[C@H](n2c(CNc3nccn3C)nc3cnc4ccc(C#N)cc4c32)CCO1` [Compound 12, 2-{[(1-methyl-1H-imidazol-2-yl)amino]methyl}-1-[(2R,4R)-2-methyloxan-4-yl]-1H-imidazo[4,5-c]quinoline-8-carbonitrile], the results for the IC50 (in assay [1]; against LRRK2 wild type enzyme) were > 10000 nM and 9.07 nM, respectively.

Take `C[C@@H]1C[C@H](n2c(CC(=O)NC3(CO)CC3)nc3cnc4ccc(C#N)cc4c32)CCO1` [Compound 286, N-1-(hydroxymethyl)cyclopropyl{3-[(2R,4R)-2-methyltetrahydro-2H-pyran-4-yl]-12-cyano-3,5,8-triazatricyclo[7.4.0.0^2,6]trideca-1,4,6,8,10,12-hexaen-4-yl}acetamide]: the IC50 was determined as 907 nM in assay [1] and 1.45 nM against LRRK2 wild type enzyme.

In the case of `C[C@@H]1C[C@H](n2c(C3CCN(C(=O)c4cnn(C)c4)CC3)nc3cnc4ccc(C#N)cc4c32)CCO1` [Compound 118, 2-[1-(1-methyl-1H-pyrazole-4-carbonyl)piperidin-4-yl]-1-[(2R,4R)-2-methyloxan-4-yl]-1H-imidazo[4,5-c]quinoline-8-carbonitrile], the IC50 in assay [1] amounted to 330 nM; against LRRK2 wild type enzyme, 0.855 nM.

Regarding `C[C@@H]1C[C@H](n2c(CC(=O)Nc3ccccc3)nc3cnc4ccc(C#N)cc4c32)CCO1` [Compound 330, N-phenyl{3-[(2R,4R)-2-methyltetrahydro-2H-pyran-4-yl]-12-cyano-3,5,8-triazatricyclo[7.4.0.0^2,6]trideca-1(9),2(6),4,7,10,12-hexaen-4-yl}acetamide], the IC50 in assay [1] came to 4.68 nM; at LRRK2 wild type enzyme it was 0.507 nM.

Consider `C[C@@H]1C[C@H](n2c(CC(=O)Nc3cnn(C4CC4)c3)nc3cnc4ccc(C#N)cc4c32)CCO1` [Compound 307, N-(1-cyclopropyl-4-pyrazolyl){3-[(2R,4R)-2-methyltetrahydro-2H-pyran-4-yl]-12-cyano-3,5,8-triazatricyclo[7.4.0.0^2,6]trideca-1(13),2(6),4,7,9,11-hexaen-4-yl}acetamide], for which the IC50 came out at 17.2 nM in assay [1] and 0.683 nM on LRRK2 wild type enzyme.

Regarding `C[C@@H]1C[C@H](n2c([C@@H]3CCN(C(=O)C4CC4)C3)nc3cnc4ccc(C#N)cc4c32)CCO1` [Compound 40, 2-[(3R)-1-cyclopropanecarbonylpyrrolidin-3-yl]-1-[(2R,4R)-2-methyloxan-4-yl]-1H-imidazo[4,5-c]quinoline-8-carbonitrile], the IC50 in assay [1] was 685 nM; on LRRK2 wild type enzyme, 9.19 nM.

For the compound `C[C@@H]1C[C@H](n2c(CC(=O)Nc3ccon3)nc3cnc4ccc(C#N)cc4c32)CCO1` [Compound 184, 2-{8-cyano-1-[(2R,4R)-2-methyloxan-4-yl]-1H-imidazo[4,5-c]quinolin-2-yl}-N-(1,2-oxazol-3-yl)acetamide], the IC50 in assay [1] was 4.73 nM; at LRRK2 wild type enzyme, 0.299 nM.

Take `C[C@@H]1C[C@H](n2c(CC(=O)Nc3cc(C4CCC4)no3)nc3cnc4ccc(C#N)cc4c32)CCO1` [Compound 340, N-(3-cyclobutyl-5-isoxazolyl){3-[(2R,4R)-2-methyltetrahydro-2H-pyran-4-yl]-12-cyano-3,5,8-triazatricyclo[7.4.0.0^2,6]trideca-1(9),2(6),4,7,10,12-hexaen-4-yl}acetamide]: the IC50 in assay [1] worked out at 15.7 nM; on LRRK2 wild type enzyme, 1.53 nM.

As to `Cc1ccc(CN2CC(c3nc4cnc5ccc(C#N)cc5c4n3[C@@H]3CCO[C@H](C)C3)CC2=O)cn1` (stereo partly drawn) [Compound 13, 1-[(2R,4R)-2-methyloxan-4-yl]-2-{1-[(6-methylpyridin-3-yl)methyl]-5-oxopyrrolidin-3-yl}-1H-imidazo[4,5-c]quinoline-8-carbonitrile], the IC50 in assay [1] was determined as 180 nM; at LRRK2 wild type enzyme it was 1.19 nM.

Consider `COc1nccc(F)c1NC(=O)Cc1nc2cnc3ccc(C#N)cc3c2n1[C@@H]1CCO[C@H](C)C1` [Compound 202, N-(4-fluoro-2-methoxy-3-pyridyl){3-[(2R,4R)-2-methyltetrahydro-2H-pyran-4-yl]-12-cyano-3,5,8-triazatricyclo[7.4.0.0^2,6]trideca-1,4,6,8,10,12-hexaen-4-yl}acetamide], for which the IC50 in assay [1] came to 8.58 nM; on LRRK2 wild type enzyme, 0.364 nM.

In the case of `Cc1ccncc1NC(=O)Cc1nc2cnc3ccc(C#N)cc3c2n1[C@@H]1CCO[C@H](C)C1` [Compound 292, N-(4-methyl-3-pyridyl){3-[(2R,4R)-2-methyltetrahydro-2H-pyran-4-yl]-12-cyano-3,5,8-triazatricyclo[7.4.0.0^2,6]trideca-1,4,6,8,10,12-hexaen-4-yl}acetamide], the results for the IC50 (in assay [1]; against LRRK2 wild type enzyme) were 8.23 nM and 0.473 nM, respectively.

`C[C@@H]1C[C@H](n2c(C3CC(=O)N([C@H]4CCCOC4)C3)nc3cnc4ccc(C#N)cc4c32)CCO1` (stereo partly drawn) [Compound 52, 1-[(2R,4R)-2-methyloxan-4-yl]-2-{1-[(3S)-oxan-3-yl]-5-oxopyrrolidin-3-yl}-1H-imidazo[4,5-c]quinoline-8-carbonitrile]: the IC50 in assay [1] amounted to 401 nM; on LRRK2 wild type enzyme, 2.91 nM.

For `C[C@@H]1C[C@H](n2c(CC(=O)N3CCCC3)nc3cnc4ccc(C#N)cc4c32)CCO1` [Compound 85, 1-[(2R,4R)-2-methyloxan-4-yl]-2-[2-oxo-2-(pyrrolidin-1-yl)ethyl]-1H-imidazo[4,5-c]quinoline-8-carbonitrile], the IC50 in assay [1] amounted to 416 nM; against LRRK2 wild type enzyme, 5.11 nM.

For `CC(=O)N1CC[C@@H](c2nc3cnc4ccc(C#N)cc4c3n2[C@@H]2CCO[C@H](C)C2)C1` [Compound 42, 2-[(3R)-1-acetylpyrrolidin-3-yl]-1-[(2R,4R)-2-methyloxan-4-yl]-1H-imidazo[4,5-c]quinoline-8-carbonitrile], the IC50 in assay [1] was 2070 nM; against LRRK2 wild type enzyme, 13 nM.

Regarding `COCCn1cc(N2CC(c3nc4cnc5ccc(C#N)cc5c4n3[C@@H]3CCO[C@H](C)C3)CC2=O)cn1` (stereo partly drawn) [Compound 171, 2-{1-[1-(2-methoxyethyl)-1H-pyrazol-4-yl]-5-oxopyrrolidin-3-yl}-1-[(2R,4R)-2-methyloxan-4-yl]-1H-imidazo[4,5-c]quinoline-8-carbonitrile], the half-maximal inhibitory concentration (IC50) is 434 nM in assay [1] and 1.46 nM against LRRK2 wild type enzyme.

For the compound `CN1CC(n2c(CC(=O)NCC3CC3)nc3cnc4ccc(C#N)cc4c32)CCC1=O` (single isomer, unassigned) [Compound 90], the 50% inhibitory concentration (IC50) in assay [1] turned out to be 799 nM; against LRRK2 wild type enzyme, 1.42 nM.

For the compound `CNC(=O)Cc1nc2cnc3ccc(C#N)cc3c2n1[C@@H]1CCO[C@H](C)C1` [Compound 82, 2-{8-cyano-1-[(2R,4R)-2-methyloxan-4-yl]-1H-imidazo[4,5-c]quinolin-2-yl}-N-methylacetamide], the IC50 turned out to be 81.8 nM in assay [1] and 0.83 nM on LRRK2 wild type enzyme.

In the case of `C[C@@H]1C[C@H](n2c(CC(=O)NC3(CF)CC3)nc3cnc4ccc(C#N)cc4c32)CCO1` [Compound 294, N-1-(fluoromethyl)cyclopropyl{3-[(2R,4R)-2-methyltetrahydro-2H-pyran-4-yl]-12-cyano-3,5,8-triazatricyclo[7.4.0.0^2,6]trideca-1,4,6,8,10,12-hexaen-4-yl}acetamide], the values for the IC50 (in assay [1]; against LRRK2 wild type enzyme) were 132 nM and 1.48 nM, respectively.

On to `C[C@@H]1C[C@H](n2c(CC(=O)Nc3cccnc3CO)nc3cnc4ccc(C#N)cc4c32)CCO1` [Compound 283, N-[2-(hydroxymethyl)-3-pyridyl]{3-[(2R,4R)-2-methyltetrahydro-2H-pyran-4-yl]-12-cyano-3,5,8-triazatricyclo[7.4.0.0^2,6]trideca-1,4,6,8,10,12-hexaen-4-yl}acetamide], for which the IC50 in assay [1] amounted to 27.3 nM; against LRRK2 wild type enzyme, 0.572 nM.

Turning to `C[C@@H]1C[C@H](n2c(CC(=O)Nc3ccc(C(F)(F)F)n(C)c3=O)nc3cnc4ccc(C#N)cc4c32)CCO1` [Compound 221, N-[1-methyl-2-oxo-6-(trifluoromethyl)-1,2-dihydro-3-pyridyl]{3-[(2R,4R)-2-methyltetrahydro-2H-pyran-4-yl]-12-cyano-3,5,8-triazatricyclo[7.4.0.0^2,6]trideca-1,4,6,8,10,12-hexaen-4-yl}acetamide], the IC50 in assay [1] was 5.77 nM; on LRRK2 wild type enzyme, 0.526 nM.

Take `C[C@@H]1C[C@H](n2c(CC(=O)Nc3cnc(C4CC4)nc3)nc3cnc4ccc(C#N)cc4c32)CCO1` [Compound 300, N-(2-cyclopropyl-5-pyrimidinyl){3-[(2R,4R)-2-methyltetrahydro-2H-pyran-4-yl]-12-cyano-3,5,8-triazatricyclo[7.4.0.0^2,6]trideca-1,4,6,8,10,12-hexaen-4-yl}acetamide]: the IC50 worked out at 10.6 nM in assay [1] and 0.382 nM against LRRK2 wild type enzyme.
